Data taken from patent US10610573B2, “NDP-MSH for treatment of inflammatory and/or neurodegenerative disorders of the central nervous system” (Westfaelische Wilhelms—Universitaet Muenster, priority 2013, dated 2020).

How the values were obtained:
[1] = tested on: C57BL/6 mice with experimental autoimmune encephalomyelitis (EAE); assay: MOG35-55-induced EAE, therapeutic systemic NDP-MSH treatment; type: in vivo, mouse; conditions: 5 μg NDP-MSH i.v. every 48 h from clinical score 2-3 (day 12), vs PBS
Protocol: FIG. 1 Effect of systemic NDP-MSH treatment on ongoing Experimental Autoimmune Encephalomyelitis (EAE). C57BL/6 mice were actively immunized by subcutaneous injection of myelin oligodendrocyte glycoprotein (MOG35-55) emulsified in Complete Freund's Adjuvant and systemically treated with 5 μg NDP-MSH or PBS every 48 hours beginning at a clinical score of 2-3. Mice were monitored for clinical score (A) and body weight (B) and sacrificed at day 17. Data from n=17 mice in each group is depicted, *, p<0.05 versus PBS-treated controls.
To investigate whether NDP-MSH is able to inhibit autoimmunity and inflammation in organs different from the skin, such as the central nervous system (CNS), the mouse model of experimental autoimmune encephalomyelitis (EAE), a T cell-mediated inflammatory autoimmune disease resembling human multiple sclerosis, was used.
Therefore, C57BL/6 mice were actively immunized by subcutaneous injection of myelin oligodendrocyte glycoprotein (MOG35-55) emulsified in Complete Freund's Adjuvant at the back skin (day 0). At day 0 and day 2 mice received intraperitoneal injections of 400 ng pertussis toxin and disease development was monitored daily. […] All mice were sacrificed at day 17 and analyzed on a cellular and molecular level. […]

brain tissue of EAE mice = assay: Histology and immunofluorescence of brain tissue from EAE mice; type: in vivo, mouse; conditions: day 17 post immunization, vs PBS
Protocol: FIG. 2 Histological analyses of brain tissue obtained from mice treated as described in FIG. 1. […] One representative image for each group (+NDP-MSH, +PBS) is shown.
Brain tissue from mice treated with NDP-MSH or PBS at day 17 post immunization obtained from Ex. 1 was analyzed. […] One representative overview (A) as well as a sectional enlargement (B) is depicted for each group. […] One representative image for each group is shown.

[2] = tested on: Th1 and Th17 cells in the CNS; assay: Flow cytometry of pathogenic Th1 and Th17 cells in the CNS of EAE mice; type: in vivo, mouse; conditions: day 17 post immunization, brain and spinal cord, n=8, vs PBS controls
Protocol: FIG. 3 Effect of NDP-MSH treatment of numbers of pathogenic Th1 and Th17 cells in the CNS. At day 17 post immunization brain and spinal cord from EAE mice treated with PBS and NDP-MSH as described for FIG. 1 were isolated. Cells were analyzed by multi-color flow cytometry using antibodies against CD4, IL-17, ROR-γt, IFN-γ and T-bet. One representative image (A) as well as the statistical evaluation from n=8 mice in each group (B) is shown, Cells are gated for CD4 and IL-17, ROR-γt, IFN-γ as well as T-bet staining was performed after cell permeabilization.
Reduced numbers of pathogenic Th1 and Th17 cells in the CNS from NDP-MSH treated mice compared to PBS-treated controls. At day 17 post immunization brain and spinal cord were isolated from PBS- and NDP-MSH-treated mice and single cell suspensions were prepared using density gradient centrifugation. Subsequently, cells were analyzed by multi-color flow cytometry using antibodies against CD4, IL-17, ROR-gt, IFN-g and T-bet. […] Cells are gated for CD4 and IL-17, ROR-gt, IFN-g as well as T-bet staining was performed after cell permeabilization.

[3] = tested on: Foxp3+ regulatory T cells; assay: Flow cytometry of Foxp3+ regulatory T cells from brain tissue of EAE mice; type: in vivo, mouse; conditions: day 17 post immunization, vs controls
Protocol: FIG. 4 Induction of functional regulatory T cells in the CNS by NDP-MSH treatment. Numbers, phenotype, and function of Foxp3^+ regulatory T cells isolated from brain tissue of NDP-MSH and PBS treated mice were analyzed. One representative dotplot (A) as well as the statistical evaluation from n=6 mice (B) is depicted. Cells are gated for CD4 and Foxp3 as well as Helios staining was performed after cell permeabilization. *, p<0.05 versus PBS treated mice.
Numbers, phenotype and function of Foxp3^+ regulatory T cells (Treg) isolated from brain tissue of NDP-MSH and PBS treated mice as described in Ex. 1 was analyzed at day 17 post immunization by flow cytometry analysis.

effector T cells = assay: Suppression of effector T cell proliferation in vitro by Treg from treated mice; type: cell-based, mouse
dendritic cells = assay: DC phenotype in regional lymph nodes of immunized mice; type: in vivo, mouse; conditions: vs PBS
Protocol: FIG. 5 Generation of tolerogenic dendritic cells by NDP-MSH treatment. The DC phenotype in regional lymph nodes from immunized NDP-MSH and PBS treated mice was analyzed. One representative dot plot (A) as well as the statistical evaluation from n=2-6 mice (B) is depicted. Cells are gated for MHCII and IL-10 as well as IFN-γ staining was performed after cell permeabilization. *, p<0.05 versus PBS treated mice.
Further, the DC phenotype in regional lymph nodes from immunized NDP-MSH and PBS treated mice was analyzed.

MC-1R deficient mice = assay: EAE in MC-1R deficient mice; type: in vivo, mouse; conditions: treated as in Ex. 1
From the text: FIG. 6 Involvement of the melanocortin-1 receptor in effects of NDP-MSH on EAE progression. EAE was induced in MC-1R deficient mice as described in FIG. 1. Subsequently, disease development was monitored over time.
To investigate whether the NDP-MSH induced effects on the progression of EAE were mediated via binding to a functional MC-1R, EAE was induced in MC-1R deficient mice with a point mutation in the MC-1R gene resulting in a truncated protein (Roberts et al., 1993). Mice were immunized with MOG35-55, injected with pertussis toxin and treated with NDP-MSH or PBS as described in Ex. 1. Subsequently, disease development was monitored over time.

Devic mice = assay: Spontaneous EAE model (Devic mice); type: in vivo, mouse
Protocol: FIG. 7 Devic mice at the age of 38 days and a clinical score of 7 (severe hind limb paralysis) were injected intravenously with 5 μg NDP-MSH every other day for 3 weeks. […] Disease progression was monitored over time.
To characterize the effects of NDP-MSH in a spontaneous EAE model Devic mice were used. Devic mouse mutants express transgenic T- and B-cell receptors specific for MOG and spontaneously develop EAE at the age of 4-5 weeks (Bettelli et al., 2006).
Starting at the age of 38 days when mice reached a clinical score of 7 (severe hind limb paralysis) animals were injected intravenously with 5 μg NDP-MSH every other day. […] Part of the mice almost completely recovered from disease. At day 60, NDP-MSH treatment was interrupted and mice were monitored for the onset of clinical symptoms.

DEREG mice = assay: EAE in Treg-depleted DEREG mice; type: in vivo, mouse; conditions: Treg depleted by diphtheria toxin, 5 μg i.v. every 48 hours
From the text: Treg were depleted in DEREG mice as described by Lahl et al. (2007) by systemic treatment with diphtheria toxin. Subsequently, EAE was induced as described in FIG. 1.
Subsequently, EAE was induced as described in Ex. 1.

CD11c-DTR mice = assay: EAE in DC-depleted CD11c-DTR mice; type: in vivo, mouse; conditions: DC depleted by diphtheria toxin, 5 μg i.v. every 48 hours
Protocol: DC were depleted in C11c-DTR mice as described by Hochweller et al. (2008) by systemic treatment with diphtheria toxin. Subsequently, EAE was induced as described in FIG. 1. 5 μg NDP-MSH were injected intravenously every 48 hours and disease progression was monitored over time.

primary mouse neurons = assay: Glutamate-stimulated primary neurons, apoptosis genes and neuronal damage; type: cell-based
Protocol: FIG. 10 Expression of pro-apoptotic (caspase-8) and anti-apoptotic (Bcl-2) genes in primary mouse neurons after treatment with […] Glutamat or 50 μM Glutamat+1 nM NDP-MSH. Primary murine neurons were stimulated with glutamate which results in apoptosis (increased expression of pro-apoptotic caspase-8 and a reduced expression of anti-apoptotic Bcl-2 relative to PBS-treated controls).
The neuroprotective role of NDP-MSH was further confirmed analyzing neurons from NDP-MSH-treated animals and vehicle-treated controls (isolated before and after MOG immunization) using histological staining tests for the detection of myelin, NeuN, act. Caspase 3 and TUNEL. Further, in vitro stimulation of neurons from embryonic mice with glutamate—which causes cell damage—in the presence or absence of NDP-MSH and subsequent histological staining tests for the detection of myelin, NeuN, act. […] Thus, a neuroprotective effect of NDP-MSH is a very likely explanation for the observed effect in the EAE model.

Nur77 = Nur77 expression in NDP-MSH stimulated neurons; type: cell-based; conditions: vs vehicle-treated controls
MOG-immunized mice = assay: MOG-induced EAE, preemptive NDP-MSH injection; type: in vivo, mouse; conditions: preemptive injection before onset of hind limb paralysis
From the text: The neuropeptide α-MSH is a potent immunomodulator capable of inducing immunosuppression and tolerance. Using the mouse model of experimental autoimmune encephalomyelitis (EAE) the present inventors systemically treated MOG-immunized mice with NDP-MSH before and after the onset of hind limb paralysis. […] Since signaling via melanocortin-1-receptor (MC-1R) mediates the immunomodulatory effects of α-MSH, EAE was induced in MC-1R-deficient mice.

[4] = tested on: rat primary astrocytes and microglia; conditions: in vitro, via MC-4R signaling; cited from earlier work
[5] = rat, in vivo; cited from earlier work
[6] = 50 μM glutamate + 1 nM NDP-MSH vs glutamate alone

With [Nle^4, D-Phe^7]-α-MSH [NDP-MSH] the body weight [1] was “started gaining weight after the first injection”, the “paralysis (clinical score)” value [1] was “recovered from paralysis” and the “expression of tissue destruction marker APP in the brain” value (brain tissue of EAE mice; immunofluorescence) was “Dramatically reduced expression”. The “expression of tissue inflammation marker RILPL2 in the brain” value (brain tissue of EAE mice; immunofluorescence) was “Dramatically reduced expression”, the “mononuclear pro-inflammatory cells infiltrating the brain (H&E staining)” value (brain tissue of EAE mice) was “almost no cell infiltrates were detectable” and the “myelination of the brain (luxol fast blue staining)” value (brain tissue of EAE mice) was “tremendous re-myelination”. For the same substance, the “reduced infiltration of Th1 cells in the CNS” value [2] was 2 factor, the “reduced infiltration of Th17 cells in the CNS” value [2] was 5 factor and the “numbers of Foxp3+ Treg expressing Helios or CTLA-4 in brain tissue” value [3] was “present at higher numbers”. For the same substance, the “function of Treg from treated mice: proliferation of effector T cells” value (effector T cells) was “efficiently inhibited the proliferation of effector T cells”, the “DC expression of PD-L1 or IL-10” value (dendritic cells) was “increased levels” and the “DC maturation markers CD80 and IFN-γ” value (dendritic cells) was “down-regulated”. The “disease development (hind limb paralysis)” value (MC-1R deficient mice) was “developed hind limb paralysis similar to PBS treated controls”, the “disease course (clinical symptoms of EAE)” value (Devic mice; 5 μg i.v. every other day for 3 weeks from day 38, clinical score 7) was “significant amelioration of disease in all animals” and the body weight (Devic mice; 5 μg i.v. every other day for 3 weeks, vs PBS) was “gained weight”. For the same substance, the “disease recurrence after treatment interruption” value (Devic mice; treatment interrupted at day 60, several weeks without injection) was “no disease recurrence”, the disease severity (DEREG mice) was “reduced disease severity” and the disease onset (CD11c-DTR mice) was “prevented disease onset”. For the same substance, the “expression of anti-apoptotic Bcl-2” value (primary mouse neurons; [6]) was “increased expression of anti-apoptotic Bcl-2”, the “expression of pro-apoptotic caspase-8” value (primary mouse neurons; [6]) was “reduced expression of pro-apoptotic caspase-8” and the “glutamate-induced neuronal damage (myelin, NeuN, act. Caspase 3, TUNEL staining)” value (primary mouse neurons; neurons from embryonic mice, in vitro) was “reduce the glutamate-induced neuronal damage”. For the same substance, the Nur77 receptor expression (Nur77) was “induction of the neuroprotective Nur77 receptor”, the EAE development (MOG-immunized mice) was “resistant to EAE development” and the “release of IL-10 and TGF-β” value [4] was “stimulates the release of IL-10 and TGF-β”.

For melanotan-II, the “nerve regeneration and neuroprotection” value [5] is given as “effective in nerve regeneration and neuroprotection”.
